Calls of active or inactive are those of the source.
Key:
[1] = biological target: T1, Methionyl-tRNA synthetase, putative (Trypanosoma brucei brucei, UniProt Q38C91); format: functional, Trypanosoma brucei brucei strain 927/4 GUTat10.1
T1 sequence (Q38C91 whole entry): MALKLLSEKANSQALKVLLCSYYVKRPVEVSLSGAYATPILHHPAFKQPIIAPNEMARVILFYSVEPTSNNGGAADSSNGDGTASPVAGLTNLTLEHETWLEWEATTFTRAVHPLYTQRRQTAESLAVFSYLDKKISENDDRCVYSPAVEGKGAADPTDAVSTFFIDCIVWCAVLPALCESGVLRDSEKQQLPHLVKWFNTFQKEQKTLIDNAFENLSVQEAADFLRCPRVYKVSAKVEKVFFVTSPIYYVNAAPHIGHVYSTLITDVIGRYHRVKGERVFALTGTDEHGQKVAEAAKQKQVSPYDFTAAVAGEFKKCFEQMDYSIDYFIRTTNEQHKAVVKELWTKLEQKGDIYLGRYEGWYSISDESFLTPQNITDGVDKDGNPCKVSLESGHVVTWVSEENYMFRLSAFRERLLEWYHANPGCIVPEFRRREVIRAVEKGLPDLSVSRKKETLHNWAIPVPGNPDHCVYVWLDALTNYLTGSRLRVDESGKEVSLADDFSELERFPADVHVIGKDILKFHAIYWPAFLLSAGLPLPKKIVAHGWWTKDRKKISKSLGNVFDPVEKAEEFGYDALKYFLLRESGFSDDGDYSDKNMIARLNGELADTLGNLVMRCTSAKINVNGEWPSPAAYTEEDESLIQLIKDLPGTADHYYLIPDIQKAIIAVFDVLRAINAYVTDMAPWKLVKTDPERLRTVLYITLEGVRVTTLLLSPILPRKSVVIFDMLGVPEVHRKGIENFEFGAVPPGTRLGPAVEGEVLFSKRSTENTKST

[2] = biological target: T1, Methionyl-tRNA synthetase, putative; format: functional, Trypanosoma brucei brucei strain 927/4 GUTat10.1; remark: listed apart in the source
[3] = Counterscreen for inhibitors of Trypanosoma brucei methionyl tRNA synthetase (MetRS): Luminescence-based cell-based high throughput dose response assay to identify compounds that are cytotoxic to Jurkat human T lymphocyte cells.; format: functional
Major prion protein = Major prion protein (Homo sapiens, UniProt P04156); format: functional, cell-based
cells [4] = assay: cells
[5] = toxicity toward HepG2 liver cells – cell-based, plate reader, cherry-pick, antagonist series, cytotoxicity control, dose response (AID 743416); format: functional
[6] = viability loss in HEK293 cells – cell-based, plate reader, cherry-picked samples, cytotoxicity control, dose response (AID 743446); format: functional
[7] = blockade of melanocortin 4 receptor signaling – cell-based, plate reader, cherry pick, counter-screen for LGR2 antagonist project, dose response (AID 743444); format: functional;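 note: transfected HEK 293 cells stimulated with alpha-MSH peptide; potency of inhibitors of the alpha-MSH evoked signal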
[8] = blockers of bursicon-stimulated LGR2 cAMP reporter – cell-based, HEK293, CRE-luciferase reporter, cherry pick, set 2, dose response (AID 743343); format: functional;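 note: transfected cells were stimulated with diluted bursicon conditioned medium after compound addition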
[9] = A549 cell cytotoxicity, dose response, cytotoxicity control, plate reader, cherry-pick, antagonist series (AID 743412); format: functional, cell-based
HEK293 [10] = assay: NOD2 signaling inhibitors in MDP-stimulated cells, cell-based, uHTS, luminescence (AID 2001); format: functional; details: Homo sapiens
Galanin receptor type 3 = Galanin receptor type 3 (Homo sapiens, UniProt O60755); assay: Fluorescence-based cell-based primary high throughput dose response assay to identify antagonists of the Galanin Receptor 3 (GalR3).; format: functional
HEK293 [11] = assay: cells; format: functional, cell-based; details: Homo sapiens
HEK293 [12] = assay: inhibition of NOD1-driven NF-kB reporter – cell-based, luminescence, uHTS, primary screen (AID 1578); format: functional; details: Homo sapiens
HEK293 [13] = assay: cells; format: functional, cell-based; details: Homo sapiens; remark: listed apart in the source
cells [14] = format: functional, cell-based; details: HEK-CNG
Mu-type opioid receptor = Mu-type opioid receptor (Homo sapiens, UniProt P35372); format: functional, cell-based;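 note: U2OS cells with beta-arrestin recruitment to OPRM1 by beta-gal complementation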
[15] = biological target: 5-hydroxytryptamine receptor 2A (Mus musculus, UniProt P35363); format: functional, cell-based;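 note: CHO-K1 cells with tagged receptor and beta-arrestin; agonist potency measured as compound-induced activation of the receptor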
Paired box protein Pax-8 = Paired box protein Pax-8 (Homo sapiens, UniProt Q06710); assay: PAX8 transcriptional activity inhibition in RMG-I – RMG-I cells, luciferase, cherry-pick, dose response (AID 687027); format: functional, cell-based;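 note: luciferase reporter driven by Pax8 target thyroperoxidase promoter measured by SteadyGlo luminescence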
[16] = general cell-killing toxicity readout – plate reader, dry powder samples, cytotoxicity control for PAX8 inhibitor project, dose response (AID 743021); format: functional, cell-based
[17] = biological target: T2, Small ubiquitin-related modifier 1 (Homo sapiens, UniProt P63165); assay: SUMO1 protein interaction blockers, potency – biochemical, fluorescence polarization, uHTS hits, dose response (AID 624382); format: functional; details: read-out: IC50_Mean
[18] = biological target: T2, Small ubiquitin-related modifier 1; assay: SUMO1 protein-protein binding blockers, potency – biochemical, FRET, dose response (AID 624383); format: functional; details: read-out: IC50_Mean
[19] = reduced cellular PGC1a acetyl-lysine signal – cell-based, cherry-picked samples, dose response (AID 720514); format: functional;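 note: potency may reflect raised or lowered acetylation signal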
[20] = OVCAR8 cell viability loss – plate reader, dry powder samples, PAX8 project, dose response (AID 743197); format: functional, cell-based; details: OVCAR-8
[21] = toxicity to human hepatoma HepG2 cells – cell-based, cherry-picked samples, cytotoxicity control, dose response (AID 1159577); format: functional
[22] = IGROV1 cell killing – plate reader, dry powder samples, PAX8 inhibitor project, dose response (AID 743043); format: functional, cell-based; details: IGROV-1
[23] = P. falciparum Dd2 growth inhibitors, dose response, SYBR Green, cherry-picked samples (AID 1159567); format: functional, cell-based
HeLa = assay: viability loss in HeLa cells – cell-based, ATP luminescence, cherry-pick samples, cytotoxicity control, dose response (AID 687004); format: functional; details: Homo sapiens
cells [24] = format: functional, cell-based
[25] = biological target: T3, Nuclear receptor subfamily 0 group B member 1 (Homo sapiens, UniProt P51843); format: functional, cell-based;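 note: HEK293T cells transfected with SF-1 and DAX-1 plus StAR promoter luciferase reporter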
T3 sequence (P51843 whole entry): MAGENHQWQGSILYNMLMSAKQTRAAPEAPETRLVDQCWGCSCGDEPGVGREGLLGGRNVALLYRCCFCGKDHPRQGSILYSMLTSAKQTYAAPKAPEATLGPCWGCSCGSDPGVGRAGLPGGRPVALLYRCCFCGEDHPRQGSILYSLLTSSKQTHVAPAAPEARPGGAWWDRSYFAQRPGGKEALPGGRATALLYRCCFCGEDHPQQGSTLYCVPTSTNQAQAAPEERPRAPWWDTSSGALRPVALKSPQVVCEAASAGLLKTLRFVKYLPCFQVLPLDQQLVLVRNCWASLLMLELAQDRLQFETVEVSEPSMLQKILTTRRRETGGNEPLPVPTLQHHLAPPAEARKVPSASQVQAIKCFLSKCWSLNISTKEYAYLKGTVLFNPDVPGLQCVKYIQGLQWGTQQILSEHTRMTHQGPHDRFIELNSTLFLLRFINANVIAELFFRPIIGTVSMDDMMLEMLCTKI

[26] = fluconazole-exposed Candida albicans growth modulators – fluorescence, retest, confirmation (AID 2467); format: functional, cell-based
[27] = NIH-3T3 fibroblast cytotoxicity, dose response, cytotoxicity control, cell-based, fluorescence, Alamar Blue, secondary assay (AID 2327); format: functional;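 note: NIH-3T3 mouse fibroblasts cultured with fluconazole at 8 µg/mL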
[28] = biological target: Matrix metalloproteinase-14 (Homo sapiens, UniProt P50281); assay: Dose Response confirmation of uHTS hits for a small molecule inhibitors of MT1-MMP activation in a fluorescence assay set 1.; format: functional

SMILES: Cc1nnc(NC(=O)CSc2n[nH]c3c4cc(Br)ccc4nc-3n2)s1
- IC50 [1]: 3.87 µM (active)
- IC50 [2]: 1.36 µM (active)
- IC50 [3]: 83.3 µM (inactive)

SMILES: CCC(Sc1ccc2nnc(-c3ccc(F)cc3)n2n1)C(=O)O (stereo not given)
- IC50 (Major prion protein): 13 µM (inactive)
- IC50 (cells [4]): > 138 µM (inactive)

SMILES: COc1cccc2c1C(=O)O/C2=C/c1ccc2c(c1)OCO2
- AC50 [5]: > 52 µM (inactive)
- AC50 [6]: > 52 µM (inactive)
- AC50 [7]: 2.69 µM (active)
- AC50 [8]: 2.1 µM (active)
- AC50 [9]: > 52 µM (inactive)

SMILES: Cc1oc(-c2ccc(Cl)cc2)nc1CSCC(=O)NC1CCN(Cc2ccccc2)CC1
- IC50 (HEK293 [10]): 3.08 µM (active)
- IC50 (Galanin receptor type 3): 1.29 µM (active)
- IC50 (HEK293 [11]): 1.68 µM (active)
- EC50 (HEK293 [12]): 2.62 µM (active)
- IC50 (HEK293 [13]): 9.78 µM (active)
- EC50 (cells [14]): > 29.9 µM (inactive)

SMILES: Cc1ccc(CCNc2ncnc(Cl)c2N)cc1
- IC50 (Galanin receptor type 3): 0.626 µM (active)
- EC50 (cells [14]): > 29.9 µM (inactive)

SMILES: Cc1ccc(NC(=O)CN2CCN(c3ccccn3)CC2)cc1S(=O)(=O)N(C)C
- EC50 (Mu-type opioid receptor): 92.5 µM (inactive)
- EC50 [15]: 0.685 µM (active)

SMILES: O=C(NCc1cc(C(F)(F)F)ccc1Cl)c1cccc2c1C(=O)c1ccc(N3CCC(N4CCCCC4)CC3)cc1S2(=O)=O
- AC50 (Paired box protein Pax-8): 11.7 µM (active)
- AC50 [16]: 19.7 µM (active)
- IC50 [17]: > 66.6 µM (inactive)
- IC50 [18]: 11.1 µM (active)

SMILES: COc1ccc2c3c(n(C)c2c1)[C@H](CO)NCC31CCN(Cc2cc(-c3ccccc3)on2)CC1
- AC50 [19]: 12.9 µM (active)
- AC50 [20]: 24.1 µM (active)
- AC50 [21]: 7.77 µM (active)
- AC50 [22]: 25.1 µM (active)
- AC50 [23]: 1.64 µM (active)
- AC50 (Paired box protein Pax-8): 7.96 µM (active)
- AC50 [16]: 43 µM (active)

SMILES: COc1cccc(-c2ccc3c(c2)[C@H]2[C@H](CCN2C(=O)Cc2ccncc2)[C@H](CO)N3C)c1
- AC50 (HeLa): > 52 µM (inactive)

SMILES: c1ccc(Nc2nnc(-c3ccc4c(c3)OCO4)o2)cc1
- AC50 [5]: 12.3 µM (active)
- AC50 [6]: 6.3 µM (active)
- AC50 [7]: 2.76 µM (active)
- IC50 (cells [24]): > 67.5 µM (inactive)
- IC50 [25]: > 0.0926 µM (active)
- AC50 [8]: 2.58 µM (active)
- AC50 [9]: 10.8 µM (active)

SMILES: Cc1ccc(SCCC(=O)N/N=C/c2ccccc2O)cc1
- IC50 [1]: 4.39 µM (active)
- EC50 [26]: 4.74 µM (active)
- IC50 [2]: 4.49 µM (active)
- EC50 [27]: > 160 µM (inactive)
- IC50 [3]: 16.1 µM (inactive)

SMILES: CN1C(=O)/C(=C2/C=Cc3ccccc3N2CCCS(=O)(=O)O)SC1=S
- IC50 [28]: > 80 µM (inactive)
